Data reported in patent publication US11116722B2, “Antifungal dry powders” (priority 2016, dated 2021).

Test system: Calu-3 cell line
Method: A bio-relevant dissolution testing system was used based on mimicking the air-liquid interface at the respiratory epithelium interface using a cell-based in vitro method. A modified next generation impactor that incorporated cell culture plates onto collection stages (cNGI) was used to uniformly deposit materials onto the cell cultures. Dissolution and permeation of the drug through the epithelial cell monolayer was measured.
Epithelial cell monolayers grown at the air-liquid interface in Snapwell™ (Corning Costar, Mass., USA) permeable insert were integrated into the cNGI. […] The transepithelial electrical resistance (TEER) was measured using an EVOM2 chopstick electrode connected to an EVOM2 Epithelial Voltohmmeter (World Precision Instruments, Hitchin, United Kingdom) and monolayers with a TEER above 450Ω.cm^2 were deemed confluent. […]
Post-dosing of the dose on to the Snapwells from stage 4, the Snapwells were transferred to 6-well plates, which contained 2 mL of PBS pH 7.4+2.0% SDS maintained at 37° C. Basolateral samples were taken at different time points and drug content was measured on an Agilent (Santa Clara, Calif., USA) 1260 Infinity series HPLC. Total dose delivered to the cells was measured from the total amount of drug dissolved over the time-course and from lysing cells post experimentation. […]

With `CCC(C)n1ncn(-c2ccc(N3CCN(c4ccc(OCC5COC(Cn6cncn6)(c6ccc(Cl)cc6Cl)O5)cc4)CC3)cc2)c1=O` (centres unmarked) [Pure ITZ, Itraconazole] the “dissolution and permeability kinetics / rate of diffusion (in words)” value was “slower dissolution and permeability kinetics than the other formulations” and the “Rate of Diffusion” value (human, pH 7.4) was 1.81 cm/s.
